Data from patent publication US8778643B2, “Methods for increasing lipid levels and producing triacylglycerols in algae” (priority 2012, dated 2014).
Counter-ions that a name gives are not always drawn. Like-named read-outs stand apart in the source and are kept apart here.

How the values were obtained:
[1] = system: Nannochloris sp.; experiment: Microplate assay: growth (absorbance 680 nm) and intracellular lipids (Nile Red fluorescence); type: cell-based; conditions: for Absorbance (percent increase) / Nile Red percent increase: initial microplate screen, relative to control
[2] = system: Nannochloropsis salina; conditions: for Nile Red Fluorescence % Increase / % Inc / % Lipid increase based on Nile red fluorescence intensity / % Increase based on Nile Red Fluorescence Intensity / % change in abs / % in NR fl: N. salina; for Nile Red Fluorescence % Increase: compounds tested at 20 μM, initial screening, p<0.05; for % Inc: increase of lipid production; for % Lipid increase based on Nile red fluorescence intensity: DMSO, t=day 0; for % Increase based on Nile Red Fluorescence Intensity: added t=day 0; for Nile Red percent increase: dose-response microplate screen
Protocol: Stock cultures were aerated by stirring with bubbling air (homemade manifold with Petco air pump, 2-4% CO2) or by orbital shaking (Thermo Scientific MAXQ 2000) at a constant speed of 150 rpm at 22±3° C. with a 16:8 hour light/dark cycle. Stocks were kept at stationary phase for use. Algae were prepared as dictated by culture center.
Compounds were selected based on reported biological activity in non-microalgae organisms. To ensure that compounds retained their quality, they were stored under advised conditions after purchasing from the manufacturer. Solutions of all assay compounds were prepared as 10 mM stock solutions by dissolving in DMSO in 2-dram amber vials and then stored in darkness −20° C. 96-well PCR plates were used to create a stock plate layout that was then transferred to the algae microplates. A plate map was used to distribute each compound to a well based on molecule name, collection number, and CAS number. For 20 μM and 200 nM assay plates, 10 mM compound stock in DMSO was diluted into plate maps of 5 mM and 50 μM assay stocks, respectively.
All materials for assay experiments were autoclaved before each use to maintain axenic algae cultures. Algae species were checked for homogeneity using a TS-100 light microscope (Nikon, Japan). […] Diluted stock solutions were made immediately prior to use for consistency and optimal plate growth. Cell density was measured on a Thermo Scientific Genesys 10S Vis Spectrophotometer (ThermoFisher, San Jose), using a 1 mL cuvette at 680 nm.
Plates were originally run in triplicate, before replicates were increased to quadruplicate, along with a separate control plate to compare growth. Due to extensive evaporation in exterior wells over time, our unique algae plate layout was designed to use the 60 interior wells out of 96 wells for the experiment. The 36 outer wells were filled with Millipore water and media to prevent evaporation and edge effects in the inner algae wells, as well as serve as blanks. The 60 wells with algae contained a total volume of 251 μL (100 μL of media+DMSO compound stock +150 μL dilute algae stock). For 20 μM and 200 nM assay plates, 10 mM compound stock in DMSO is diluted into plate maps of 5 mM and 50 μM assay stocks, respectively. […] Plates were parafilmed during growth to limit the amount of evaporation that can occur. Plates were numbered, and numerically ordered to ensure they got the same shaker space.
The shakers are kept at a constant shaking of 150 rpm. Ambient temperature is 22±3° C.

[3] = system: Phaeodactylum tricornutum; experiment: Microplate assay: growth (absorbance 680 nm) and intracellular lipids (Nile Red fluorescence); type: cell-based; conditions: for % Inc: increase of lipid production; for % Inc / Nile Red Fluorescence % Increase / % change in abs / % in NR fl: P. tricornutum; for Nile Red Fluorescence % Increase: compounds tested at 200 nM, initial screening, p<0.05
[4] = Nannochloris sp., compounds tested at 200 nM, initial screening, p<0.05
[5] = Nannochloris sp., compounds tested at 20 μM, initial screening, p<0.05
[6] = 200 nM, initial microplate screen, relative to control
[7] = Nannochloris sp., 49 nM, dissolved in water, added t=day 0

CC(=O)N1CCN(c2ccc(OC[C@H]3CO[C@](Cn4ccnc4)(c4ccc(Cl)cc4Cl)O3)cc2)CC1 (relative stereo) [Ketoconazole, cis-1-Acetyl-4-[4-[[2-(2,4-dichlorophenyl)-2-(1H-imidazol-1-ylmethyl)-1,3-dioxolan-4-yl]methoxy]phenyl]piperazine]
Nile Red Fluorescence % Increase [1, 4]: 258.9% | Nile Red Fluorescence % Increase [2]: 32.0%

CN(NO)C1=CC(=O)C(=O)C=C1 [3,4-dephostatin, 4-[(hydroxyamino)-methylamino]cyclohexa-3,5-diene-1,2-dione]
% increase (lipid production) ([3]; 0.0252-165.6 nM (H2O)): 5-46% | % increase (lipid production) ([3]; 0.0252-165.6 nM, not marked H2O): 12-33% | % increase (lipid production) ([2]; 0.0252-55.2 nM): 8-40% | % increase (lipid production) ([2]; 0.0252-165.6 nM (H2O)): 14-72%

Oc1cc(O)c2c(c1)O[C@H](c1ccc(O)c(O)c1)[C@@H](O)C2 [(+)-Catechin, (2R,3S)-2-(3,4-dihydroxyphenyl)-3,4-dihydro-2H-chromene-3,5,7-triol]
% Inc ([2]; best conc. 39 nM): 84.21%

O=c1cc(-c2ccc(O)cc2)oc2cc(O)cc(O)c12 [Apigenin, 5,7-Dihydroxy-2-(4-hydroxyphenyl)-4H-1-benzopyran-4-one]
Absorbance (percent increase) ([1]; 20 μM): −7.3% | Nile Red percent increase ([1]; 20 μM): 59.9% | Nile Red Fluorescence % Increase [1, 5]: 136.7% | Nile Red Fluorescence % Increase [2]: 34.3% | % Inc ([2]; best conc. 39 nM): 90.17%

O=C1O[C@H]([C@@H](O)CO)C(O)=C1O [Ascorbic acid, (2R)-2-[(1S)-1,2-dihydroxyethyl]-3,4-dihydroxy-2H-furan-5-one]
% Inc ([3]; best conc. 10 nM): 57.28%

CCNc1nc(Cl)nc(NC(C)C)n1 [Atrazane, 1-Chloro-3-ethylamino-5-isopropylamino-2,4,6-triazine]
Absorbance (percent increase) ([1]; 200 nM): −1.7% | Nile Red percent increase ([1]; 200 nM): 86.2%

c1ccc(CNc2ncnc3[nH]cnc23)cc1 [Benzylamino Purine]
% Inc ([3]; best conc. 40 μM): 120.94%

c1ccc(CNc2ncnc3nc[nH]c23)cc1 [Benzylaminopurine, N-(phenylmethyl)-7H-purin-6-amine]
Absorbance (percent increase) [3, 6]: −14.6% | Nile Red percent increase [3, 6]: 105.9% | Nile Red Fluorescence % Increase [3]: 105.9%

O=C1C(Cl)=C(NCCN2CCOCC2)C(=O)c2ncccc21 [CDC25]
Nile Red Fluorescence % Increase [1, 4]: 28.2% | Nile Red Fluorescence % Increase [1, 5]: 130.9%

O=C1NC(=O)c2c1c1c3ccccc3[nH]c1c1[nH]c3cc(Br)ccc3c21 [CDK4 I1, 2-Bromo-12,13-dihydro-5H-indolo[2,3-a]pyrrolo[3,4-c]carbazole-5,7(6H)-dione]
Nile Red percent increase ([3]; 40 μM, dose-response microplate screen): 129% | % Inc ([3]; best conc. 10 μM): 68.76% | % Lipid increase based on Nile red fluorescence intensity ([2]; 40 μM): 49% | % Increase based on Nile Red Fluorescence Intensity ([2]; 40 μM, DMSO delivery): 49%

CCNc1cc(N[C@H]2CC[C@H](O)CC2)nc(Nc2ccc3c(ccn3Cc3ccccc3)c2)n1 [CDK4 I4, trans-4-((6-(ethylamino)-2-((1-(phenylmethyl)-1H-indol-5-yl)amino)-4-pyrimidinyl)amino)-cyclohexanol]
Nile Red percent increase ([2]; 40 μM): 144% | % Inc ([2]; best conc. 40 μM): 144.22%

Cn1c(=O)c2c(ncn2C)n(C)c1=O [Caffeine, 1,3,7-trimethyl-1H-purine-2,6(3H,7H)-dione]
Absorbance (percent increase) ([1]; 200 nM): −7.5% | Nile Red percent increase ([1]; 200 nM): 60.4%

C/C=C/C/C=C/CCC(=O)[C@H]1O[C@H]1C(N)=O [Cerulenin, (2R,3S)-3-[(4E,7E)-Nona-4,7-dienoyl]oxirane-2-carboxamide]
Absorbance (percent increase) ([1]; 200 nM): −13.2% | Nile Red percent increase ([1]; 200 nM): 94.6% | Nile Red Fluorescence % Increase [1, 4]: 107.9%

O=C(O)CC(O)(CC(=O)O)C(=O)O [Citric acid, 2-hydroxypropane-1,2,3-tricarboxylic acid]
Absorbance (percent increase) ([1]; 200 nM): −6.5% | Nile Red percent increase ([1]; 200 nM): 55.41%

O=c1ccc2cc(O)c(O)cc2o1 [Esculetin, 6,7-Dihydroxy-2-chromenone]
% increase (lipid production) ([3]; 0.0252-18.4 nM): 3-79% | % increase (lipid production) ([2]; 0.0252-6.13 nM (H2O)): 5-31 (H2O) % | % increase (lipid production) ([2]; 0.0757-55.2 nM, DMSO delivery): 1-30% | % Lipid increase based on Nile red fluorescence intensity ([2]; 6.13 nM): 62% | % Increase based on Nile Red Fluorescence Intensity ([2]; 681 pM, DMSO delivery): 50% | % Increase based on Nile Red Fluorescence Intensity ([2]; 6.13 nM, DMSO delivery): 62%

NC(=O)c1cccc(-c2cccc(OC(=O)NC3CCCCC3)c2)c1 [FAAH Inhibitor II, 3′-Carbamoyl-biphenyl-3-yl-cyclohexylcarbamate]
% Increase based on Nile Red Fluorescence Intensity [1]: 167% | % Lipid increase based on Nile red fluorescence intensity ([1]; Nannochloris sp., 0.6 nM, (water), t=day 0): 182% | % Increase based on Nile Red Fluorescence Intensity ([1]; Nannochloris sp., 0.2 nM, dissolved in water, added t=day 0): 145% | % Increase based on Nile Red Fluorescence Intensity ([1]; Nannochloris sp., 0.6 nM, dissolved in water, added t=day 0): 182% | % Increase based on Nile Red Fluorescence Intensity [1, 7]: 154% | % Increase based on Nile Red Fluorescence Intensity ([1]; Nannochloris sp., 1.3 μM, dissolved in water, added t=day 0): 144%

O=c1c(-c2ccc(O)cc2)coc2cc(O)cc(O)c12 [Genistein, 5,7-Dihydroxy-3-(4-hydroxyphenyl)chromen-4-one]
% increase (lipid production) ([3]; 54 nM-40 μM (H2O)): 16-70% | % increase (lipid production) ([2]; […]-40 μM): 11-85%

C=C1C[C@]23C[C@@]1(O)CC[C@H]2[C@@]12C=C[C@H](O)[C@@](C)(C(=O)O1)[C@H]2[C@@H]3C(=O)O [Giberellic acid, (3S,3aS,4S,4aS,6S,8aR,8bR,11S)-6,11-Dihydroxy-3-methyl-12-methylene-2-oxo-4a,6-ethano-3,8bprop-1-enoperhydroindeno[1,2-b]furan-4-ca]
Absorbance (percent increase) ([1]; 200 nM): −1.1% | Nile Red percent increase ([1]; 200 nM): 70.4%

CC(C)Cc1ccc(C(C)C(=O)O)cc1 (stereo not shown) [Ibuprofen]
Nile Red Fluorescence % Increase [1, 5]: 80.2% | Nile Red Fluorescence % Increase [2]: 59.0%

COc1ccc2c(c1)c(CC(=O)O)c(C)n2C(=O)c1ccc(Cl)cc1 [Indomethacin, 1-(4-Chlorobenzoyl)-5-methoxy-2-methyl-3-indoleacetic acid]
% Increase based on Nile Red Fluorescence Intensity [1, 7]: 81% | Nile Red percent increase ([2]; 55 nM): 118% | % Lipid increase based on Nile red fluorescence intensity ([2]; 123.5 nM): 61% | % Increase based on Nile Red Fluorescence Intensity ([2]; 123.5 nM, DMSO delivery): 61%

O=C(Oc1ccc([N+](=O)[O-])cc1)N1CCC(C(O)(c2ccc3c(c2)OCO3)c2ccc3c(c2)OCO3)CC1 [JZL 184 hydrate, 4-nitrophenyl-4-[bis(1,3-benzodioxol-5-yl)(hydroxy)methyl]piperidine-1-carboxylate]
% change in abs ([2]; 3.3 μM): −12.15% | % in NR fl ([2]; 3.3 μM): 95.70% | % change in abs ([2]; 10 μM): 13.75% | % in NR fl ([2]; 10 μM): 86.72% | % change in abs ([2]; 40 μM): 0.61% | % in NR fl ([2]; 40 μM): 118.99% | % Lipid increase based on Nile red fluorescence intensity ([2]; 40 μM): 119% | % Increase based on Nile Red Fluorescence Intensity ([2]; 40 μM, DMSO delivery): 119%

CC/C=C\C[C@H]1C(=O)CC[C@@H]1CC(=O)O [Jasmonic acid, (1R,2R)-3-Oxo-2-(2Z)-2-pentenyl-cyclopentaneacetic acid]
Absorbance (percent increase) ([1]; 200 nM): −7.6% | Nile Red percent increase ([1]; 200 nM): 87.5% | Nile Red Fluorescence % Increase [1, 4]: 80.5%

O=C1Cc2c([nH]c3ccc(Br)cc23)-c2ccccc2N1 [Kenpaulllone]
Nile Red Fluorescence % Increase [1, 4]: 84.2%

O=C1Cc2c([nH]c3ccc(Br)cc23)-c2ccccc2N1 [Kenpaullone, 9-Bromo-7,12-dihydro-indolo[3,2-d][1]benzazepin-6(5H)-one]
Absorbance (percent increase) ([1]; 200 nM): −8.1% | Nile Red percent increase ([1]; 200 nM): 77.5% | Nile Red Fluorescence % Increase [1, 5]: 97.7% | Nile Red Fluorescence % Increase [2]: 34.8%

c1coc(CNc2ncnc3nc[nH]c23)c1 [Kinetin, N^6-furfuryladenine]
Absorbance (percent increase) ([1]; 200 nM): −9.0% | Nile Red percent increase ([1]; 200 nM): 72.4% | Nile Red Fluorescence % Increase [3]: 25.2% | % Inc ([3]; best conc. 39 nM): 76.29%

COc1ccc2[nH]cc(CCNC(C)=O)c2c1 [Melatonin, N-Acetyl-5-methoxytryptamine]
% Inc ([3]; best conc. 40 μM): 47.80%

CC/C=C\CC1C(=O)CCC1CC(=O)OC (stereo not shown) [Methyl jasmonate]
% Lipid increase based on Nile red fluorescence intensity ([2]; 13 nM): 85% | % Increase based on Nile Red Fluorescence Intensity ([2]; 13 nM, DMSO delivery): 85%

CCC(C)Nc1ccc(NC(C)CC)cc1 (stereo not shown) [N,N′-di-sec-butyl-p-phenylenediamine, 1-N,4-N-di(butan-2-yl)benzene-1,4-diamine]
% Inc ([3]; best conc. 156 nM): 39.51%

COc1ccc2cc([C@H](C)C(=O)O)ccc2c1 [Naproxen, (S)-(+)-2-(6-Methoxy-2-naphthyl)propionic acid]
% Inc ([2]; best conc. 156 nM): 67.44%

CCCCCCCCCCCCCCCC(=O)C(F)(F)F [PTFK, 1,1,1-Trifluoro-2-heptadecanone]
% change in abs ([3]; 13 nM): 3.22% | % in NR fl ([3]; 13 nM): 70.44% | % change in abs ([3]; 41.2 nM): 5.05% | % in NR fl ([3]; 41.2 nM): 67.59%

O=c1c(O)c(-c2ccc(O)c(O)c2)oc2cc(O)cc(O)c12 [Quercetin, 2-(3,4-dihydroxyphenyl)-3,5,7-trihydroxy-4H-chromen-4-one]
Absorbance (percent increase) ([1]; 200 nM): −1.6% | Nile Red percent increase ([1]; 200 nM): 63.5%

CC[C@H](CO)Nc1nc(NCc2ccccc2)c2ncn(C(C)C)c2n1 [Roscovitine]
Nile Red Fluorescence % Increase [1]: 30.8%

Cc1ncc(C[n+]2csc(CCO)c2C)c(N)n1 [Thiamine, Aneurine hydrochloride, Vitamin B1 hydrochloride]
Absorbance (percent increase) ([1]; 200 nM): −12.1% | Nile Red percent increase ([1]; 200 nM): 122.6%

Indole acetic acid
Nile Red Fluorescence % Increase [1]: 95.4%
